Assay [1] concerns the target T1, xlσ1R-C179/C203 (Xenopus laevis, UniProt Q6DCU6, L179C/Y203C).
T1 construct: The gene encoding the full-length wild-type σ1R from Xenopus laevis; hemagglutinin signal peptide (N); decahistidine (His10) (N); TEV protease recognition site (N); made in house; host or cells: Pichia pastoris GS115
T1 sequence (Q6DCU6 1-221 L179C/Y203C): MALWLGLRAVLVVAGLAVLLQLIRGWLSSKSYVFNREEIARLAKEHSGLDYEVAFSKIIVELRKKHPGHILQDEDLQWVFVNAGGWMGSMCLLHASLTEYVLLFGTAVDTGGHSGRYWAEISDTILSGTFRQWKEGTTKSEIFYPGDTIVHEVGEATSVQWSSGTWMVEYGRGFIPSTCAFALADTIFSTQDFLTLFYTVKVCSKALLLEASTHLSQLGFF
In words: ITC binding of PRE084 to xlσ1R-C179/C203 (disulfide oxidation / re-reduction). As to conditions: ITC; for number of available binding sites per protomer (stoichiometry): mean ± SD.

Assay [2] concerns the target T2, xlσ1R-C179 (Xenopus laevis, UniProt Q6DCU6, L179C).
T2 construct: The gene encoding the full-length wild-type σ1R from Xenopus laevis; hemagglutinin signal peptide (N); decahistidine (His10) (N); TEV protease recognition site (N); made in house; host or cells: Pichia pastoris GS115
T2 sequence (Q6DCU6 1-221 L179C): T1 sequence (Q6DCU6 1-221 L179C/Y203C) with C203Y
In words: ITC binding of PRE084 to xlσ1R-C179 before/after mPEG-Mal-5K modification. As to conditions: for C179 stoichiometry, Before modification / number of available binding sites per protomer (stoichiometry) / C179 stoichiometry, After modification: ITC; for number of available binding sites per protomer (stoichiometry): mean ± SD; for C179 stoichiometry, After modification: mPEG-Mal-5K.

Assay [3] addresses T3, xlσ1R-C203 (Xenopus laevis, UniProt Q6DCU6, Y203C).
T3 construct: The gene encoding the full-length wild-type σ1R from Xenopus laevis; hemagglutinin signal peptide (N); decahistidine (His10) (N); TEV protease recognition site (N); made in house; host or cells: Pichia pastoris GS115
T3 sequence (Q6DCU6 1-221 Y203C): T1 sequence (Q6DCU6 1-221 L179C/Y203C) with C179L
In words: ITC binding of PRE084 to xlσ1R-C203 before/after mPEG-Mal-5K modification. As to conditions: for number of available binding sites per protomer (stoichiometry): mean ± SD; for C203 stoichiometry, After modification: mPEG-Mal-5K.

Where [4] appears, read: Mean of repeats (source data Fig. 4b).
Where [5] appears, read: individual repeats (source data Fig. 4b).
[6] abbreviates: Mean of repeats (source data Fig. 4e).
Setting [7] is: individual repeats (source data Fig. 4e).
[8] abbreviates: ITC, individual repeats (source data Fig. 4e).

Molecules are shown by their SMILES. Where a chain is given by its changes, count along the chain named. Values joined by “and” are separate entries in the source; they are usually repeats but may differ in a detail not shown here. Equal values may be shown once.

For `O=C(OCCN1CCOCC1)C1(c2ccccc2)CCCCC1` [PRE084, [2-(morpholin-4-yl)ethyl] 1-phenylcyclohexane-1-carboxylate], the “increase of Kd after oxidation compared to before oxidation” value in assay [1] was ~ 9 fold. The “C179/C203 stoichiometry, After oxidation” value was 0.1833 in assay [1] (setting [4]); 0.179 and 0.210 and 0.161 in assay [1] (setting [5]). Further, the “C179/C203 stoichiometry, Before oxidation” value is 0.9178 in assay [1] (setting [4]); 0.933 and 0.929 and 0.922 and 0.901 and 0.904 in assay [1] (setting [5]). In addition, the “C179/C203 stoichiometry, Re-reduction” value in assay [1] (setting [4]) was 0.5202; in assay [1] (setting [5]), 0.502 and 0.537 and 0.513 and 0.529. Moreover, the “number of available binding sites per protomer (stoichiometry)” value in assay [1] (after oxidation (disulfide formed)) was found to be 0.18 ± 0.02; in assay [1] (before oxidation), 0.92 ± 0.01; in assay [1] (oxidized sample re-reduced with β-mercaptoethanol), 0.52 ± 0.02; in assay [2] (after mPEG-Mal-5K modification), 0.48 ± 0.07; in assay [2] (before mPEG-Mal-5K modification), 0.85 ± 0.09; in assay [3] (ITC, after mPEG-Mal-5K modification) it was 0.69 ± 0.04. Besides, the “number of available binding sites per protomer (stoichiometry)” value in assay [3] (ITC, before mPEG-Mal-5K modification) stood at 0.87 ± 0.01. In addition, the “C179 stoichiometry, Before modification” value was 0.8482 in assay [2] (setting [6]); 0.787 and 0.943 and 0.756 and 0.907 in assay [2] (setting [7]). The “C179 stoichiometry, After modification” value in assay [2] (setting [6]) is 0.4808; in assay [2] (setting [7]), 0.399 and 0.462 and 0.576 and 0.486. For the same compound, the “blockade percentage (reduction of available binding sites)” value is recorded as ~ 44% in assay [2] (after mPEG-Mal-5K modification) and ~ 21% in assay [3] (after mPEG-Mal-5K modification). Further, the “C203 stoichiometry, Before modification” value in assay [3] (setting [8]) is 0.883 and 0.859 and 0.873. The “C203 stoichiometry, After modification” value in assay [3] (ITC, Mean of repeats (source data Fig. 4e)) is 0.6895; in assay [3] (setting [8]), 0.635 and 0.734 and 0.712 and 0.677.

The values above are taken from PMC8913746, “An open-like conformation of the sigma-1 receptor reveals its ligand entry pathway” (Nature Communications, 2022).
